Measurements from patent US12128034B2, “Combinations of beta-lactam compounds, probenecid, and valproic acid and uses thereof” (Iterum Therapeutics International Limited, priority 2020, dated 2024).

Legend:
[1] = tested on: Porphyromonas gingivalis; settings: Ednie and Appelbaum 2009; cited from earlier work
[2] = in vivo
[3] = clinical; settings: in vivo; for AUC(0-t): AUC0-t; for AUC: AUC0-tau
Protocol: For Cohorts 2 and 3, all patients were administered valproic acid daily. Starting on the fifth day, Cohort 3 was administered the sulopenem etzadroxil tablet (“Etzadroxil Tablet”) alone and Cohort 2 was administered the bilayer tablet of sulopenem etzadroxil and probenecid (500 mg sulopenem etzadroxil+500 mg probenecid film-coated bilayer tablet; “Bilayer Tablet”).

[4] = Dacey and Sande 1974; cited from earlier work
[5] = may result in loss of seizure control; cited from earlier work

Structure (SMILES): C[C@@H](O)[C@H]1C(=O)N2C(C(=O)O)=C(S[C@H]3CC[S@@+]([O-])C3)S[C@H]12 [sulopenem]
- activity against Porphyromonas gingivalis [1]: active
- tolerability and safety [2]: well tolerated and safe
- effect on the steady-state pharmacokinetic profile of valproic acid [3]: weak effect

Structure (SMILES): CCCN(CCC)S(=O)(=O)c1ccc(C(=O)O)cc1 [probenecid]
- concentrations of β-lactam compounds in the cerebrospinal fluid [4]: increase
- time at which the impact of probenecid on valproic acid bioavailability can occur ([3]; human): as early as three days

Structure (SMILES): C[C@@H](O)[C@H]1C(=O)N2C(C(=O)O)=C(S[C@@H]3CN[C@H](C(=O)Nc4cccc(C(=O)O)c4)C3)[C@H](C)[C@H]12 [ertapenem]
- serum valproic acid concentration in patients receiving carbapenem antibiotics [5]: clinically significant reduction

Structure (SMILES): C[C@@H](O)[C@H]1C(=O)N2C(C(=O)O)=C(SCCN=CN)C[C@H]12 [imipenem]
- serum valproic acid concentration in patients receiving carbapenem antibiotics [5]: clinically significant reduction

Structure (SMILES): C[C@@H](O)[C@H]1C(=O)N2C(C(=O)O)=C(S[C@@H]3CN[C@H](C(=O)N(C)C)C3)[C@H](C)[C@H]12 [meropenem]
- serum valproic acid concentration in patients receiving carbapenem antibiotics [5]: clinically significant reduction

Structure (SMILES): CCCC(CCC)C(=O)O [VPA, valproic acid]
- tolerability and safety [2]: well tolerated and safe
- tlast, Mean (SD) ([3]; male, human): 11.920 (0.0000) h
- AUC0-t, Mean (SD) ([3]; male, human, po): 570.83 (122.096) h · μg/mL
- AUC0-tau, Mean (SD) ([3]; male, human, po): 554.71 (140.804) h · μg/mL
- Tmax ([3]; male, human, po): 4 h
- tmax, Median (min, max) ([3]; male, human, po): 4.000 (2.00, 5.00) h
- AUC(0-t) ([3]; male, human, po, GM (CV %)): 517 µg·h/mL
- AUC(0-t) ([3]; male, human, po, Mean (SD)): 522 µg·h/mL
- AUC ([3]; male, human, po, GM (CV %)): 518 µg·h/mL
- AUC ([3]; male, human, po, Mean (SD)): 522 µg·h/mL
